Assay [1] concerns G-quadruplex oligonucleotide F21T (human telomere). The assay can be described thus: FRET melting of G-quadruplex oligonucleotide F21T with ligands. Format: binding. As to conditions: for ΔTm (° C.) F21T/ds26: helquat 1 μmol·l^−1, oligonucleotide 0.2 μmol·l^−1, 50-fold excess of double-stranded competitor ds26; for ΔTm (° C.) F21T: helquat 1 μmol·l^−1, oligonucleotide 0.2 μmol·l^−1, without competitor. From the text: To determine the degree of in vitro interactions of helquats with G-quadruplex(es), the oligonucleotides containing the guanine-rich sequences of human telomere (F21T) and NHE III1 promoter region of c-myc oncogene (Fmyc27T) were used. Both oligonucleotides capable of forming an intramolecular G-quadruplex were end-labeled with suitable fluorophores so as to form donor-acceptor FRET pair (5′-FAM and 3′-TAMRA). If the oligonucleotide is folded into the structure of the G-quadruplex, donor is in close proximity of acceptor and radiationless energy transfer to the acceptor occurs. With increasing temperature of the reaction mixture G-quadruplex structure gradually denatures and thus the donor and acceptor (FAM-TAMRA) drift apart. This leads to an increase in fluorescence of donor (FAM) and a decrease in fluorescence of acceptor (TAMRA).
The result of measurement is the curve of dependence of the intensity of fluorescence of the donor on the temperature. If the G-quadruplex is stabilized by ligand, melting temperature will increase. Melting temperature of G-quadruplex corresponds to the temperature when 50% of the original amount of the folded G-quadruplex is denatured. The measurement outcome is the difference in the melting temperatures (ΔTm) of the G-quadruplex alone and the G-quadruplex stabilized by ligand. In case of Fmyc27T experiments were performed in cacodylate buffer (10 mmol·l^−1, pH=7.2) with KCl (5 mmol·l^−1) and LiCl (95 mmol·l^−1) oligonucleotide and in case of F21T oligonucleotide in cacodylate buffer (10 mmol·l^−1, pH=7.2) with KCl (25 mmol·l^−1) and LiCl (75 mmol·l^−1).
Both oligonucleotides were denatured for 5 minutes at 95° C. and subsequently allowed to cool to room temperature (3 hours) in the switched-off thermoblock. The final oligonucleotide concentration in the reaction mixture was 0.2 μmol·l^−1. Test helquats were present at concentrations of 1 μmol·l^−1. The total reaction volume was 30 μl. The melting temperature of the oligonucleotides alone (without the presence of helquats) under these conditions was 58.1±0.2° C. for F21T and 64.7±0.4° C. for Fmyc27T. For determining the selectivity of binding of helquats to G-quadruplex in comparison with the double-stranded DNA, 50-fold excess of double-stranded DNA ([…] unlabeled competitor ds26 forming a hairpin) is added to the reaction mixture. After the addition to the reaction mixture ds26 competes with labeled oligonucleotide (Fmyc27T or F21T) for ligand binding. […] Melting temperature of oligonucleotides alone in the presence of the competitor is 59.4±0.5° C. for F21T and 66.3° C.±0.6° C. for Fmyc27T.
Fluorescence of FAM donor was measured using real-time PCR apparatus Opticon 2 (excitation 470-505 nm and emission 523-543 nm) in temperature increments of 0.5° C. in the range 25 to 95° C. Evaluation of the sigmoid curves of fluorescence intensity dependent on the temperature were performed in GraphPad Prism 5 (GraphPad Software, Inc., USA). Using nonlinear five parametric regression the inflection point on the curve was calculated that corresponds to the melting temperature (Tm) of the G-quadruplex under the given conditions. The values were obtained from at least three independent measurements.

A further assay concerns HUVEC. The experiment in a line: XTT cytotoxicity/proliferation assay, HUVEC. As to conditions: Homo sapiens, HUVEC. Format: cell-based, human. Summed up:
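HUVEC (passages 3–8, collagen I-coated dishes, E-STIM medium) plated at 3000 cells/well, dosed next day with compounds in water. After 72 h at 37 °C, XTT added for 2 h; absorbance at 492 nm (reference 690 nm) against untreated and medium-only controls.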
A general note: Formazan colour is commonly taken as a measure of viable cells.

Where [2] appears, read: 72 hours of treatment, values above 100 μmol·l^−1 obtained by extrapolation, read-out: IC50 HUVEC.
[3] abbreviates: 72 hours, summary of table 9, read-out: concentrations non-toxic towards HUVEC cells.

Each structure is given as a SMILES string. Read-outs that look alike come from different tables or passages of the source.

For the compound `O=[N+]([O-])c1cccc2[nH]cc(/C=C/c3cc[n+]4c(c3)-c3c(ccc5c3-c3cccc[n+]3CC5)CC4)c12` (racemic) [LSA-C9-32, (rac)-(E)-2-(2-(4-nitro-1H-indol-3-yl)vinyl)-6,7,10,11-tetrahydrodipyrido[2,1-a:1′,2′-k][2,9]phenanthroline-5,12-diium trifluoromethanesulfonate], the “ΔTm (° C.) F21T/ds26” value in assay [1] is 6.6 °C. Also, the “ΔTm (° C.) F21T” value in assay [1] turned out to be 9.3 °C. For the same compound, the IC50 with HUVEC (setting [2]) is no less than 100 µM; in the assay on HUVEC (setting [3]), greater than 100 µM.

With `Cc1c(C)c2c(c3c1CC[n+]1ccc(/C=C/c4cccc5c4oc4ccccc45)cc1-3)-c1c3ccccc3cc[n+]1CC2` (racemic) [MJA-C13-8, (rac)-(E)-13-(2-(dibenzo[b,d]furan-4-yl)vinyl)-6,7-dimethyl-4,5,8,9-tetrahydroisoquinolino[1,2-a]pyrido[1,2-k][2,9]phenanthroline-3,10-diium trifluoromethanesulfonate], in assay [1], the “ΔTm (° C.) F21T/ds26” value came out at 1.4 °C and the “ΔTm (° C.) F21T” value was 7.4 °C. The IC50 in the assay on HUVEC (setting [2]) is no less than 100 µM.

As to `C(=C\c1cccc2c1oc1ccccc12)/c1cc[n+]2c(c1)-c1c(ccc3c1-c1c4ccccc4cc[n+]1CC3)CC2.O=S(=O)([O-])C(F)(F)F.O=S(=O)([O-])C(F)(F)F` [MSB-C13-8, (E)-13-(2-(dibenzo[b,d]furan-4-yl)vinyl)-4,5,8,9-tetrahydroisoquinolino[1,2-a]pyrido[1,2-k][2,9]phenanthroline-3,10-diium trifluoromethanesulfonate], in assay [1], the “ΔTm (° C.) F21T/ds26” value amounted to 3.4 °C and the “ΔTm (° C.) F21T” value was 9.0 °C. Also, the IC50 in the assay on HUVEC (setting [2]) is no less than 100 µM.

On to `Brc1ccc2[nH]cc(/C=C/c3cc4ccccc4[n+]4c3-c3c(ccc5c3-c3cccc[n+]3CCC5)CCC4)c2c1.O=S(=O)([O-])C(F)(F)F.O=S(=O)([O-])C(F)(F)F` [MSC-C9-30, 19-((E)-2-(5-bromo-1H-indol-3-yl)vinyl)-6,7,8,11,12,13-hexahydropyrido[1′″,2′″:1″,2″]azepino[4″,3″:5′,6′]benzo[1′,2′:3,4]azepino[1,2-a]quinoline-5,14-diium trifluoromethanesulfonate], for which the figures for the IC50 with HUVEC (setting [2]) and in the assay with HUVEC (setting [3]) were no less than 100 µM and greater than 100 µM, respectively.

On to `C(=C\c1c(-c2ccccc2)[nH]c2ccccc12)/c1cc2ccccc2[n+]2c1-c1c(ccc3c1-c1cccc[n+]1CCC3)CCC2.O=S(=O)([O-])C(F)(F)F.O=S(=O)([O-])C(F)(F)F` [MSC-C15-8, 19-((E)-2-(2-phenyl-1H-indol-3-yl)vinyl)-6,7,8,11,12,13-hexahydropyrido[1′″,2′″:1″,2″]azepino[4″,3″:5′,6′]benzo[1′,2′:3,4]azepino[1,2-a]quinoline-5,14-diium trifluoromethanesulfonate], for which, in the assay with HUVEC (setting [2]), the IC50 was no less than 51 µM.

Values taken from patent US9932339B2, “Helquats with heteroaromatic substituents, preparation thereof, and use thereof as G-quadruplex stabilizers” (USTAV ORGANICKE CHEMIE A BIOCHEMIE AV CR, V.V.I., priority 2014, dated 2018).
